Measurements published in patent publication US5879902A, “Diagnostic methods and kits for the evaluation of the sympathetic nervous system function” (Neuro-Biotech Inc., priority 1997, dated 1999).
Where “and” joins values, the source holds several entries; their conditions need not be identical. Equal entries are not always repeated. Structures can show the parent of a compound that is named as a salt. Each block holds one molecule with its values, some of them ahead of it.

Tests used:
Assay type in all cases: biochemical
dopamine-β-hydroxylase [1] = target: T1, dopamine-β-hydroxylase (Homo sapiens, UniProt P09172); experiment: Specific DBH activity in unpurified human serum (octopamine formed from tyramine, spectrophotometric); conditions: for saturation point (concentration saturating the enzyme activity): 20 μL human serum, tyramine varied at 10 mM ascorbate, ascorbate varied at 20 mM tyramine; for decrease in enzyme activity on omission of the component from the incubation medium: component omitted; for apparent Vmax: pH 5.0, Woolf's graphical method; for % Control (DBH activity with the named component omitted) / Activity (DBH enzyme activity with the named component omitted): named ingredient omitted from reaction mixture, pool of 25 normal human serum; for Activity (DBH enzyme activity with the named component omitted): 37° C., mean ± SEM of at least 10 determinations
T1 sequence (P09172 40-617 limits assumed): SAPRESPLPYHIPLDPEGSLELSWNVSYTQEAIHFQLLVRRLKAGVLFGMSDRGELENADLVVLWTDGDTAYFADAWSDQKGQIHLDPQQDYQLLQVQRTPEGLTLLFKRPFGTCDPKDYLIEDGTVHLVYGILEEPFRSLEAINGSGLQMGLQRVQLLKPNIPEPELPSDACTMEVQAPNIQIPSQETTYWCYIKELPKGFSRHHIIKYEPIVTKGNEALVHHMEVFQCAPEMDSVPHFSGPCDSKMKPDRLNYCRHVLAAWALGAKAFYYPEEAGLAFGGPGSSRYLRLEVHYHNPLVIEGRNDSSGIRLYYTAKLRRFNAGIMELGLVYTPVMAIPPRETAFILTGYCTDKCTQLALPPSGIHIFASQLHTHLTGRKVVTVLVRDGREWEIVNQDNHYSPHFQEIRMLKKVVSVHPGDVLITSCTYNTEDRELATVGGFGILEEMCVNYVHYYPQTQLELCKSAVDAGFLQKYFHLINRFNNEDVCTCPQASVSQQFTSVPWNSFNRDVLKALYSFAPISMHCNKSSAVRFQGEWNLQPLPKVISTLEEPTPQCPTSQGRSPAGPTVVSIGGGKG
Method: (§1) The kinetic parameters and biochemical properties were done on a pool of 25 subjects randomly distributed between males and females. An appropriate aliquot of serum was taken as enzyme source and diluted in ice-cold deionized water to a final volume of 400 μL, prior the preincubation period. For individual measurements of DBH enzyme activity, 20 μL of human serum was routinely used. For the ultrafiltration method, an aliquot of a pool of serum was passed through a DIAFLO™ Ultrafilter membrane, type YM100, and 40 μL of the ultrafiltrate was used to measure the enzyme activity (FIG. 9).
The specific DBH activity was determined by the method described by Roberge and Charbonneau (Roberge AG et al., Nutr Res, 1985, 5:57-63). The preincubation mixture contained 0.2M sodium acetate buffer (pH 5), 15 mM N-ethylmaleimide (NEM) and the enzyme source (from the serum sample) and was carried out at 25° C. for 10 min in an atmosphere of air using a metabolic shaker (Dubnoff). To the preincubated enzymatic source were added to a final volume of 1 mL: 10 mM fumarate, […], 2500 units catalase and 1 mM pargyline, as monoamide oxidasae inhibitor. Blanks and internal standards were set up in the same manner and contained 20 mM octopamine instead of the enzyme source. The incubation was started with 20 mM tyramine and conducted at 37° C. for 30 min in an atmosphere of air using a metabolic shaker (Dubnoff). The reaction was stopped on ice by adding 300 μL of 3M trichloroacetic acid to each tube and immediately centrifuged at 2500 g of at 4° C. for 10 min. The supernatant was decanted on a DOWEX™ 50×4-400 resin column and the acid eluted with 3M NH4 OH. The octopamine formed was derived to p-hydroxybenzaldehyde by periodate cleavage which was isolated by successive solvent extractions with ether and ammonia. The last aqueous phase was assayed by a dual-wavelenght spectrophotometer (333-360 nm). Specific activity was expressed […] of octopamine formed per mL per min. Recovery of octopamine added to the blank incubation mixture was 90±2%. L-tyramine was used as substrate and an aliquot of unpurified serum was taken as the enzyme source, usually 20 μL.
Apparent Michaelis constant (Km) and apparent maximum velocity (Vmax) were determined following the Woolf's graphical procedure and the usual method of Lineweaver and Burk. Statistical estimation related to enzyme kinetics was done according to Wilkinson.

dopamine-β-hydroxylase [2] = target: T1, dopamine-β-hydroxylase; experiment: DBH activity in ultrafiltrate of human serum (DIAFLO YM100 membrane); set-up: an aliquot of a pool of serum was passed through a DIAFLO™ Ultrafilter membrane, type YM100; from tissue; host or cells: ultrafiltrate of pooled human serum; conditions: with the named substance in the medium (15 mM NEM; copper up to 4 μM)
Method: as §1
(§2) The specific DBH activity was determined by the method described by Roberge and Charbonneau (Roberge AG et al., Nutr Res, 1985, 5:57-63). The preincubation mixture contained 0.2M sodium acetate buffer (pH 5), 15 mM N-ethylmaleimide (NEM) and the enzyme source (from the serum sample) and was carried out at 25° C. for 10 min in an atmosphere of air using a metabolic shaker (Dubnoff). To the preincubated enzymatic source were added to a final volume of 1 mL: 10 mM fumarate, […], 2500 units catalase and 1 mM pargyline, as monoamide oxidasae inhibitor. […]
The relationship between copper and NEM in the medium was studied in an aliquot of serum passed through a DIAFLO™ Ultrafilter membrane, type YM100, and the enzyme activity was measured in the ultrafiltrate. […]

dopamine-β-hydroxylase [3] = target: T1, dopamine-β-hydroxylase; experiment: DBH activity in human EDTA-treated blood
Method: (§3) The specific DBH activity was determined by the method described by Roberge and Charbonneau (Roberge AG et al., Nutr Res, 1985, 5:57-63). The preincubation mixture contained 0.2M sodium acetate buffer (pH 5), 15 mM N-ethylmaleimide (NEM) and the enzyme source (from the serum sample) and was carried out at 25° C. for 10 min in an atmosphere of air using a metabolic shaker (Dubnoff). To the preincubated enzymatic source were added to a final volume of 1 mL: 10 mM fumarate, […], 2500 units catalase and 1 mM pargyline, as monoamide oxidasae inhibitor. Blanks and internal standards were set up in the same manner and contained 20 mM octopamine instead of the enzyme source. The incubation was started with 20 mM tyramine and conducted at 37° C. for 30 min in an atmosphere of air using a metabolic shaker (Dubnoff). The reaction was stopped on ice by adding 300 μL of 3M trichloroacetic acid to each tube and immediately centrifuged at 2500 g of at 4° C. for 10 min. […]
(§4) Apparent Michaelis constant (Km) and apparent maximum velocity (Vmax) were determined following the Woolf's graphical procedure and the usual method of Lineweaver and Burk. […]
(§5) In FIG. 7A, the specific DBH enzyme activity was measured in human blood treated with EDTA, a copper chelator, in respect to pH dependence, to copper content added in the incubation medium and to kinetic parameters. […]

[4] = substrate: NCCc1ccc(O)cc1; experiment: DBH activity in human EDTA-treated blood; conditions: other: EDTA-treated blood, pH 5.8, Lineweaver and Burk
Method: as §3, §4, §5

[5] = substrate: NCCc1ccc(O)cc1; experiment: Specific DBH activity in unpurified human serum (octopamine formed from tyramine, spectrophotometric); conditions: other: human serum, pH 5.0, Woolf's graphical method
Method: as §1, §2, §4

Molecule: O=C1O[C@H]([C@@H](O)CO)C(O)=C1O [ascorbate, ascorbic acid]
saturation point (concentration saturating the enzyme activity) (dopamine-β-hydroxylase [1]): 10 mM
decrease in enzyme activity on omission of the component from the incubation medium (dopamine-β-hydroxylase [1]; human serum): 96%
Km value lower than for tyramine (fold) (dopamine-β-hydroxylase [1]; human serum): 10 times
apparent Vmax (dopamine-β-hydroxylase [1]; human serum): 56 nmol of octopamine formed per mL per min
% Control (DBH activity with the named component omitted) (dopamine-β-hydroxylase [1]): 4%
Activity (DBH enzyme activity with the named component omitted) (dopamine-β-hydroxylase [1]): 2.2 ± 0.19 nmol of octopamine formed per mL per min

Molecule: CCN1C(=O)C=CC1=O [N-ethylmaleimide (NEM), N-ethylmaleimide]
decrease in enzyme activity on omission of the component from the incubation medium (dopamine-β-hydroxylase [1]; human serum): 36% and 66%
% Control (DBH activity with the named component omitted) (dopamine-β-hydroxylase [1]): 66%
Activity (DBH enzyme activity with the named component omitted) (dopamine-β-hydroxylase [1]): 35.6 ± 0.39 nmol of octopamine formed per mL per min
enzyme activity in ultrafiltrate (dopamine-β-hydroxylase [2]): 52±0.7 nmol of octopamine formed per mg of protein per hour

Molecule: O=C(O)/C=C/C(=O)O [Furnarate, disodium fumarate]
% Control (DBH activity with the named component omitted) (dopamine-β-hydroxylase [1]): 88%
Activity (DBH enzyme activity with the named component omitted) (dopamine-β-hydroxylase [1]): 47.5 ± 1.00 nmol of octopamine formed per mL per min
increase in enzyme activity by addition of fumarate (dopamine-β-hydroxylase [1]; whatever the concentrations used, up to 40 mM): 12%

saturation point (concentration saturating the enzyme activity) (dopamine-β-hydroxylase [1]): 20 mM
Molecule: NCCc1ccc(O)cc1 [tyramine, L-tyramine]
apparent Vmax (dopamine-β-hydroxylase [1]; human serum): 72 nmol of octopamine formed per mL per min
Vmax (dopamine-β-hydroxylase [3]; EDTA-treated blood, pH 5.8, Lineweaver and Burk): 38.5 nmol of octopamine formed per mL per min

maximum decrease in enzyme activity (dopamine-β-hydroxylase [1]; 20 μM exogenous copper, with 15 mM NEM in the medium): 90%
exogenous copper content above which enzyme activity decreases significantly (dopamine-β-hydroxylase [1]; with 15 mM NEM in the medium): higher than 2 μM
exogenous copper concentration above which enzyme activity decreases significantly (dopamine-β-hydroxylase [1]; without NEM in the medium): higher than 4 μM
effect of exogenous copper on EDTA inhibition (dopamine-β-hydroxylase [3]; copper from 0 to 100 μM in the medium): progressively reversed
Molecule: [Cu] [copper]
enzyme activity in ultrafiltrate (dopamine-β-hydroxylase [2]): 51±0.56 nmol of octopamine formed per mg of protein per hour

% Control (DBH activity with the named component omitted) (dopamine-β-hydroxylase [1]): 10%
B1: Catalase: beef liver catalase, added for peroxide degradation (protein, UniProt P00432 2-527, looked up)
Catalase: ADNRDPASDQMKHWKEQRAAQKPDVLTTGGGNPVGDKLNSLTVGPRGPLLVQDVVFTDEMAHFDRERIPERVVHAKGAGAFGYFEVTHDITRYSKAKVFEHIGKRTPIAVRFSTVAGESGSADTVRDPRGFAVKFYTEDGNWDLVGNNTPIFFIRDALLFPSFIHSQKRNPQTHLKDPDMVWDFWSLRPESLHQVSFLFSDRGIPDGHRHMNGYGSHTFKLVNANGEAVYCKFHYKTDQGIKNLSVEDAARLAHEDPDYGLRDLFNAIATGNYPSWTLYIQVMTFSEAEIFPFNPFDLTKVWPHGDYPLIPVGKLVLNRNPVNYFAEVEQLAFDPSNMPPGIEPSPDKMLQGRLFAYPDTHRHRLGPNYLQIPVNCPYRARVANYQRDGPMCMMDNQGGAPNYYPNSFSAPEHQPSALEHRTHFSGDVQRFNSANDDNVTQVRTFYLKVLNEEQRKRLCENIAGHLKDAQLFIQKKAVKNFSDVHPEYGSRIQALLDKYNEEKPKNAVHTYVQHGSHLSAREKANL
catalase amount up to which enzyme activity increases (then plateau till 4000 units) (dopamine-β-hydroxylase [1]; human serum): 2000 units
Activity (DBH enzyme activity with the named component omitted) (dopamine-β-hydroxylase [1]): 5.6 ± 0.45 nmol of octopamine formed per mL per min

B2: dopamine-β-hydroxylase (Homo sapiens) (protein)
chain: SAPRESPLPYHIPLDPEGSLELSWNVSYTQEAIHFQLLVRRLKAGVLFGMSDRGELENADLVVLWTDGDTAYFADAWSDQKGQIHLDPQQDYQLLQVQRTPEGLTLLFKRPFGTCDPKDYLIEDGTVHLVYGILEEPFRSLEAINGSGLQMGLQRVQLLKPNIPEPELPSDACTMEVQAPNIQIPSQETTYWCYIKELPKGFSRHHIIKYEPIVTKGNEALVHHMEVFQCAPEMDSVPHFSGPCDSKMKPDRLNYCRHVLAAWALGAKAFYYPEEAGLAFGGPGSSRYLRLEVHYHNPLVIEGRNDSSGIRLYYTAKLRRFNAGIMELGLVYTPVMAIPPRETAFILTGYCTDKCTQLALPPSGIHIFASQLHTHLTGRKVVTVLVRDGREWEIVNQDNHYSPHFQEIRMLKKVVSVHPGDVLITSCTYNTEDRELATVGGFGILEEMCVNYVHYYPQTQLELCKSAVDAGFLQKYFHLINRFNNEDVCTCPQASVSQQFTSVPWNSFNRDVLKALYSFAPISMHCNKSSAVRFQGEWNLQPLPKVISTLEEPTPQCPTSQGRSPAGPTVVSIGGGKG
notes: from tissue; host or cells: human serum, unpurified (pool of 25 subjects; also individual subjects)
Km [4]: 2.4 mM
Km [5]: 8 mM
